Results published in patent publication US20240150293A1, “SPIROCYCLOHEXANE DERIVATIVES, PHARMACEUTICAL COMPOSITIONS CONTAINING THEM AND THEIR USES AS ANTI-APOPTOTIC INHIBITORS” (LES LABORATOIRES SERVIER, priority 2021, published 2024).
Where two headings read alike, the source gives them in different places.

Legend:
[1] = tested on: H929 multiple myeloma tumor line; assay: In vitro cytotoxicity, MTT assay (Example B, Method A); format: cell-based; conditions: H929 cells, 48 hours exposure, read-out: C50
Method: The cytotoxicity studies were carried out on the H929 multiple myeloma tumor line.
The cells are distributed onto microplates and exposed to the test compounds for 48 hours. The cell viability is then quantified by a colorimetric assay, the Microculture Tetrazolium Assay (Carmichael et al, Cancer Res. 1987, 47, 939-942).
The results are expressed in C50 which means concentration corresponding to […] of effect/inhibition.

[2] = target: Cy5-labelled Mcl1 (amino acids 171-321) C286S protein (UniProtKB Q07820) (Homo sapiens (Human), UniProt Q07820, C286S); assay: Inhibition of Mcl-1 by the fluorescence quenching assay (Example A, Method B); format: binding
Method in brief: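 Cy5-labelled Mcl1 171-321 C286S (1 nM) quenched by TQ5WS-labelled PUMA peptide (10, 20 or 400 nM); displacement raises fluorescence (Ex 620/Em 680 nm). Buffer 10 mM HEPES, 150 mM NaCl, 0.05% Tween 20, pH 7.4, 5% DMSO; 2 h at room temperature, 11-point curves, IC50 converted to Ki (cKi/eKi).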

Chain of Cy5-labelled Mcl1 (amino acids 171-321) C286S protein (Q07820 171-321 C286S): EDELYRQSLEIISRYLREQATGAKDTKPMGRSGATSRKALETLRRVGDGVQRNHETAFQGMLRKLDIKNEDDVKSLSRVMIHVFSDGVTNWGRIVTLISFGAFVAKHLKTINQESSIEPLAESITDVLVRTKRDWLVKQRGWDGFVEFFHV

| Ki [2] [nM] | Compound | IC50 [1] [nM] | IC50 ([1]; Homo sapiens, NCI-H929, 48 h) [nM] |
| --- | --- | --- | --- |
| 9.55 | CC1CCc2nccc(OC[C@H](C)CC3=Cc4ccccc4[C@]34CC[C@@](Nc3cccc(Cl)c3)(C(=O)O)CC4)c21 (single isomer, unassigned) [Example 629] | 880 |  |
| 39.3 | CO[C@H]1CCCc2nccc(OC[C@H](C)C[C@H]3Cc4ccccc4[C@]34CC[C@@](Nc3cccc(Cl)c3)(C(=O)O)CC4)c21 [Example 671, (1r,2′S,4S)-4-(3-chloroanilino)-2′-[(2R)-3-{[(5S)-5-methoxy-5,6,7,8-tetrahydroquinolin-4-yl]oxy}-2-methylpropyl]-2′,3′-dihydrospiro[cyclohexane-1,1′-indene]-4-carboxylic acid] |  | 2560 |
| 1.42 | C[C@@H](COc1ccnc2c1[C@H](C)CCC2)CC1=Cc2cc(F)c(F)cc2[C@]12CC[C@@](Nc1cccc(Cl)c1)(C(=O)O)CC2 [Example 774, (1r,4R)-4-(3-chloroanilino)-5′,6′-difluoro-2′-[(2R)-2-methyl-3-{[(5R)-5-methyl-5,6,7,8-tetrahydroquinolin-4-yl]oxy}propyl]spiro[cyclohexane-1,1′-indene]-4-carboxylic acid] |  | 118 |
| 4.34 | C[C@@H]1CCCc2nccc(OCC(CC3=Cc4ccccc4[C@]34CC[C@@](Nc3cccc(Cl)c3)(C(=O)O)CC4)c3ccccn3)c21 (stereo partly drawn) [Example 566, (1r,4R)-4-(3-chloroanilino)-2′-[3-{[(5R)-5-methyl-5,6,7,8-tetrahydroquinolin-4-yl]oxy}-2-(pyridin-2-yl)propyl]spiro[cyclohexane-1,1′-indene]-4-carboxylic acid] |  | 721 |
| 9.39 | C[C@@H](COc1ccnc2c1[C@@H](C)CCC2)CC1=Cc2ccccc2[C@]12CC[C@@](Nc1cccc(Cl)c1)(C(=O)O)CC2 [Example 647, (1r,4R)-4-(3-chloroanilino)-2′-[(2R)-2-methyl-3-{[(5S)-5-methyl-5,6,7,8-tetrahydroquinolin-4-yl]oxy}propyl]spiro[cyclohexane-1,1′-indene]-4-carboxylic acid] |  | 871 |
| 29.9 | CCCC#C[C@H](COc1ccnc2ccsc12)CC1=Cc2ccccc2[C@]12CC[C@@](Nc1cccc(Cl)c1)(C(=O)O)CC2 [Example 564, (1r,4R)-4-(3-chloroanilino)-2′-[(2R)-2-{[(thieno[3,2-b]pyridin-7-yl)oxy]methyl}hept-3-yn-1-yl]spiro[cyclohexane-1,1′-indene]-4-carboxylic acid] |  | 16100 |
| 0.769 | O=C(O)[C@]1(Nc2cccc(Cl)c2)CC[C@@]2(CC1)c1ccccc1CC2CC(COc1ccnc2c1CCC2)COc1ccnc2c1CCC2 (single isomer, unassigned) [Example 498, (1r,4r)-4-(3-chloroanilino)-2′-(3-[(6,7-dihydro-5H-cyclopenta[b]pyridin-4-yl)oxy]-2-{[(6,7-dihydro-5H-cyclopenta[b]pyridin-4-yl)oxy]methyl}propyl)-2′,3′-dihydrospiro[cyclohexane-1,1′-indene]-4-carboxylic acid] | 436 |  |
| 0.0988 | C[C@@H](COc1ccnc2c1[C@H](C)CCC2)C[C@H]1Cc2ccc(C=O)cc2[C@]12CC[C@@](Nc1cccc(Cl)c1)(C(=O)O)CC2 [Example 867, (1r,2′S,4S)-4-(3-chloroanilino)-6′-formyl-2′-[(2R)-2-methyl-3-{[(5R)-5-methyl-5,6,7,8-tetrahydroquinolin-4-yl]oxy}propyl]-2′,3′-dihydrospiro[cyclohexane-1,1′-indene]-4-carboxylic acid] |  | 73 |
| 6.95 | O=C(O)[C@]1(Nc2cccc(Cl)c2)CC[C@@]2(CC1)c1ccccc1C[C@@H]2C[C@H](COc1ccnc2ccsc12)c1ccccc1 [Example 547, (1r,2′S,4S)-4-(3-chloroanilino)-2′-{(2S)-2-phenyl-3-[(thieno[3,2-b]pyridin-7-yl)oxy]propyl}-2′,3′-dihydrospiro[cyclohexane-1,1′-indene]-4-carboxylic acid] |  | 376 |
| 62.9 | CC[C@H]1CCCc2nccc(OC[C@H](C)C[C@H]3Cc4ccccc4[C@]34CC[C@@](Nc3cccc(Cl)c3)(C(=O)O)CC4)c21 [Example 656, (1r,2′S,4S)-4-(3-chloroanilino)-2′-[(2R)-3-{[(5S)-5-ethyl-5,6,7,8-tetrahydroquinolin-4-yl]oxy}-2-methylpropyl]-2′,3′-dihydrospiro[cyclohexane-1,1′-indene]-4-carboxylic acid] |  | 2910 |
| 1.18 | C[C@@H](COc1ccnc2c1[C@H](C)CC=C2)C[C@H]1Cc2ccccc2[C@]12CC[C@@](Nc1cccc(Cl)c1)(C(=O)O)CC2 [Example 677, (1r,2′S,4S)-4-(3-chloroanilino)-2′-[(2R)-2-methyl-3-{[(5R)-5-methyl-5,6-dihydroquinolin-4-yl]oxy}propyl]-2′,3′-dihydrospiro[cyclohexane-1,1′-indene]-4-carboxylic acid] |  | 245 |
| 2.28 | C[C@@H](COc1ccnc2c1[C@H](C)CCC2)C[C@@H]1Cc2cc(F)c(F)cc2[C@]12CC[C@@](Nc1cccc(Cl)c1)(C(=O)O)CC2 [Example 776, (1r,2′R,4R)-4-(3-chloroanilino)-5′,6′-difluoro-2′-[(2R)-2-methyl-3-{[(5R)-5-methyl-5,6,7,8-tetrahydroquinolin-4-yl]oxy}propyl]-2′,3′-dihydrospiro[cyclohexane-1,1′-indene]-4-carboxylic acid] |  | 227 |
| 1.46 | C[C@@H](COc1ccnc2c1[C@H](C)CC[C@H]2F)C[C@H]1Cc2ccccc2[C@]12CC[C@@](Nc1cccc(Cl)c1)(C(=O)O)CC2 [Example 689, (1r,2′S,4S)-4-(3-chloroanilino)-2′-[(2R)-3-{[(5R,8R)-8-fluoro-5-methyl-5,6,7,8-tetrahydroquinolin-4-yl]oxy}-2-methylpropyl]-2′,3′-dihydrospiro[cyclohexane-1,1′-indene]-4-carboxylic acid] |  | 117 |
| 0.932 | C[C@@H](COc1ccnc2ccsc12)C[C@H]1Cc2cc(F)ccc2[C@]12CC[C@@](Nc1cccc(Cl)c1)(C(=O)O)CC2 [Example 737, (1r,2′S,4S)-4-(3-chloroanilino)-5′-fluoro-2′-{(2R)-2-methyl-3-[(thieno[3,2-b]pyridin-7-yl)oxy]propyl}-2′,3′-dihydrospiro[cyclohexane-1,1′-indene]-4-carboxylic acid] |  | 191 |
| 41.6 | C[C@H]1Cc2c(OC[C@H](C)C[C@H]3Cc4ccccc4[C@]34CC[C@@](Nc3cccc(Cl)c3)(C(=O)O)CC4)ccnc2[C@H](O)C1 (racemic) [Example 670, (1r,2′S,4S)-4-(3-chloroanilino)-2′-[(2R)-3-{[(6RS,8SR)-8-hydroxy-6-methyl-5,6,7,8-tetrahydroquinolin-4-yl]oxy}-2-methylpropyl]-2′,3′-dihydrospiro[cyclohexane-1,1′-indene]-4-carboxylic acid] |  | 3600 |
| 5.8 | C[C@@H](COc1ccnc2c1C(F)CCC2)C[C@H]1Cc2ccccc2[C@]12CC[C@@](Nc1cccc(Cl)c1)(C(=O)O)CC2 (single isomer, unassigned) [Example 685] | 1460 |  |
| 0.35 | C[C@@H](COc1ccnc2c1[C@H](C)CC[C@H]2O)CC1=Cc2cc(F)ccc2[C@]12CC[C@@](Nc1cccc(Cl)c1)(C(=O)O)CC2 [Example 770, (1r,4R)-4-(3-chloroanilino)-5′-fluoro-2′-[(2R)-3-{[(5R,8R)-8-hydroxy-5-methyl-5,6,7,8-tetrahydroquinolin-4-yl]oxy}-2-methylpropyl]spiro[cyclohexane-1,1′-indene]-4-carboxylic acid] |  | 90.6 |
| 0.194 | C[C@@H](COc1ccnc2c1[C@H](C)CCC2)C[C@H]1Cc2ccccc2[C@]12CC[C@@](Nc1ccc(F)c(Cl)c1)(C(=O)O)CC2 [Example 702, (1r,2′S,4S)-4-(3-chloro-4-fluoroanilino)-2′-[(2R)-2-methyl-3-{[(5R)-5-methyl-5,6,7,8-tetrahydroquinolin-4-yl]oxy}propyl]-2′,3′-dihydrospiro[cyclohexane-1,1′-indene]-4-carboxylic acid] |  | 41.5 |
| 0.176 | C[C@@H](COc1ccnc2c1[C@H](C)CC[C@H]2O)C[C@H]1Cc2cc(F)ccc2[C@]12CC[C@@](Nc1cccc(Cl)c1)(C(=O)O)CC2 [Example 771, (1r,2′S,4S)-4-(3-chloroanilino)-5′-fluoro-2′-[(2R)-3-{[(5R,8R)-8-hydroxy-5-methyl-5,6,7,8-tetrahydroquinolin-4-yl]oxy}-2-methylpropyl]-2′,3′-dihydrospiro[cyclohexane-1,1′-indene]-4-carboxylic acid] |  | 18.3 |
| 26.4 | C[C@@H]1CCCc2nccc(OCC(CF)CC3=Cc4ccccc4[C@]34CC[C@@](Nc3cccc(Cl)c3)(C(=O)O)CC4)c21 (single isomer, unassigned) [Example 515] | 2390 |  |
| 1.17 | CC1CCc2nccc(OC[C@H](C)CC3=Cc4ccccc4[C@]34CC[C@@](Nc3cccc(Cl)c3)(C(=O)O)CC4)c21 (single isomer, unassigned) [Example 630] | 340 |  |
| 10.9 | C[C@@H](COc1ccnc2c1C(OC(F)F)CCC2)C[C@H]1Cc2ccccc2[C@]12CC[C@@](Nc1cccc(Cl)c1)(C(=O)O)CC2 (stereo partly drawn) [Example 691, (1r,2′S,4S)-4-(3-chloroanilino)-2′-[(2R)-3-{[5-(difluoromethoxy)-5,6,7,8-tetrahydroquinolin-4-yl]oxy}-2-methylpropyl]-2′,3′-dihydrospiro[cyclohexane-1,1′-indene]-4-carboxylic acid] |  | 806 |
